Assay results published in patent publication US11459546B2, “Method for producing somatic cell, somatic cell, and composition” (Kyoto Prefectural Public University Corporation, priority 2016, dated 2022).

Tested on: Human skin fibroblasts
Assay: Direct transformation from human fibroblast to brown adipocyte (Example B)
Format: cell-based
Parameters: key: the mark “++++” indicates that almost all of the fibroblasts were transformed into brown adipocytes; +++: the larger the number of the marks “+” is, the higher the transformation efficiency is; ++: the larger the number of the marks “+” is, the higher the transformation efficiency is; the larger the number of the marks “+” is, the higher the transformation efficiency is; The mark “−” indicates that the fibroblasts were not transformed into brown adipocytes
Settings: fibroblast of subject; judged from UCP1 immunostaining and cell states, FIG. 4 to FIG. 8
Experimental: Human skin fibroblasts were purchased from DS Pharma Biomedical Co., Ltd. Cell information is described in the following table.
About 1.5×10^5 cells were seeded on a 35 mm dish containing a high-glucose DMEM medium (11995-065, Gibco, MA, USA) to which 10% fetal bovine serum (FBS) (HyClone, Utah, USA) and penicillin/streptomycin (Gibco) were added.
After each of the human fibroblasts reached 80-90% confluence, the medium was changed to start direct transformation into the brown adipocyte. The adipocyte medium for use was prepared by adding an additive reagent containing ascorbic acid, biotin, pantothenic acid, triiodothyronine, octanoic acid, insulin, dexamethasone, IBLMX (3-isobutyl-1-methylxanthine), FBS and penicillin/streptomycin (MK425, Takara Bio Inc.) to a high-glucose DMEM medium (043-30085, Wako Pure Chemical Industries, Ltd.). […]
Immunocytochemistry was performed in accordance with a previous report (Dai P, et al. J Clin Biochem Nutr. 2015; 56 (3): 166-70). […] All images were acquired using a fluorescence microscope (Axio Vert. A1, Carl Zeiss, Oberkochen, Germany). […]
The efficiencies of transformation into the adipocyte-like cells with various combinations of the compounds were evaluated from the results shown in FIG. 4 to FIG. 8, and the results are shown in the following table. […]

CN(CCOc1ccc(CC2SC(=O)NC2=O)cc1)c1ccccn1 (stereo not shown) [Ro only, Rosiglitazone]
Efficiency (transformation into the adipocyte-like cells): −
